The record followed here is paper PMC9570898, “Comparing Variants of the Cell-Penetrating Peptide sC18 to Design Peptide-Drug Conjugates” (Molecules, 2022).

Series [1] relates to HeLa cells. Description: Cytotoxicity (resazurin) assay in HeLa cells. The settings on record: 24 h; for EC50: 37 °C, 2.5-70 µM, Dox data not shown. The method, then:
For cell viability assay, cells were (15,000 HeLa, 17,000 MCF-7 and 12,000 HFF-1 cells per well) seeded onto a 96-well plate and grown to 80–90% confluency. Cells were incubated with several peptide concentrations in a serum-free growth medium for 24 h under standard growth conditions. For the positive control, cells were treated with 70% EtOH for 7 min. After washing with DPBS, resazurin solution (10% in serum-free media, v/v) was incubated with the cells for 1 h under standard growth conditions. The cell viability was determined relative to untreated cells by measurement of the resorufin product at 595 nm (λex = 550 nm) on a Tecan infinite M200 plate reader (Tecan Group AG, Männedorf, Switzerland).
Figure 2 (A,B): Cytotoxicity profiles of the peptides in HeLa and HEK-293 cells. Cells were cultured and incubated at pH 7.4 for 24 h with different concentrations of peptide solutions. Untreated cells served as negative control; cells treated with 70% ethanol as positive control. Values from the positive control were subtracted from all data, and the untreated cells were set to 100%; assays were performed with n = 3 in triplicate. (C): Flow cytometry analysis of HeLa or HEK-293 cells after incubating 1 and 10 µM peptide solutions for 30 min at 37 °C; assays were conducted in triplicate n = 3. (D): Confocal laser scanning microscopy analysis of 10 µM CF-labeled peptides after 30 min of incubation in HeLa cells. Green: CF-labeled peptides; blue: Hoechst 33342 nuclear stain; scale bar is 10 µm.
Figure 5 (A): Cytotoxicity assay using HFF-1 cells. Different PDC concentrations were incubated with the cells for 24 h at 37 °C and a resazurin assay was conducted. (B): Dose-response curves for peptide drug conjugates were obtained using the resazurin assay. For this, HeLa cells were treated with various conjugate concentrations (2.5–70 µM) for 24 h at 37 °C. (C): Quantification of PDC internalization in HeLa cells; 10 µM PDC solutions were incubated with cells for 30 min at 37 °C and cells were inspected using a flow cytometer; assays were conducted in triplicate n = 3.

The test system of series [2] is HeLa cells. Description: Cellular uptake by flow cytometry in HeLa cells. The conditions noted are these: 30 min; for cellular uptake: 1 and 10 µM CF-labeled peptide, 37 °C, serum-free medium. The series is classed as cell-based, human. As for the experimental part:
(§1) Monolayer cellular uptake was quantified using flow cytometry. Cells were seeded onto a 24-well plate (HeLa: 90,000, HEK293: 100,000 and MCF-7 130,000 cells per well) and grown to 80–90% confluency. Then, cells were incubated with the labeled peptides/conjugates in a serum-free medium at 37 °C for various incubation times, and subsequently washed twice with PBS and detached with indicator-free trypsin resuspended in an indicator-free serum-containing medium. The cell suspension was transferred into a 96-well FACS plate and fluorescence was then measured by a Guava easyCyte flow cytometer (Merck, Darmstadt, Germany).The blue laser was used for all measurements, FSC (1137–1538), SSC (3020–4086), Grn-B (647–875) and Red-B (694–939). Cellular autofluorescence of untreated control cells was subtracted.
(In general: A flow cytometer gives signals particle by particle.)

Series [3] deals with HeLa cells. Briefly: Fluorescence microscopy of intracellular distribution in HeLa cells. The settings on record: 30 min; for intracellular distribution of PDC: 5 µM conjugate, 37 °C, fluorescence microscopy; for intracellular accumulation / uptake pattern: 10 µM CF-labeled peptide, confocal fluorescence microscopy. The series is classed as cell-based, human. As for the experimental part: Cells were seeded into 8-well plates (HeLa cells 35,000 and HFF-1 25,000 cells per well, respectively) and grown to 80–90% confluency. Cells were treated with 10 μM CF- or dox-labeled peptides in a serum-free medium for 30 min at 37 °C. Ten minutes prior to the end of the incubation time, nuclei were stained with Hoechst33342. The peptide solution was removed, and cells were washed five times with PBS and covered with fresh medium including FBS. Microscopic analysis was performed using an inverse confocal TCS SP8 microscope (Leica Microsystems, Wetzlar, Germany), equipped with a 63× oil-immersion objective. Images were recorded with LAS X software (LAS_X_Core_3.7.6_25997, Leica Microsystems, Wetzlar, Germany). For the GUV analysis and the uptake of the peptide-drug conjugates the Keyence fluorescence tabletop microscope BZ-X800E (Keyence, Osaka, Japan), with a 60× oil immersion lens was used. Images were recorded with Keyence software (BZ-800X_Analyzer 1.1.1.8, Keyence, Osaka: Japan) and evaluated with Fiji.
Figure 6 Fluorescence microscope analysis of 5 µM conjugates after 30 min of incubation at 37 °C in HeLa and HFF-1 cells. Red: peptides coupled to red fluorophore Doxorubicin; blue: Hoechst 33342 nuclear stain; BF: brightfield to identify living cells; scale bar is 20 µm.

For series [4], the system named is HFF-1 cells. Description: Cytotoxicity (resazurin) assay in HFF-1 cells. The series is classed as cell-based, human. The conditions noted are these: 24 h treatment, different concentrations, lowest viability reached. On the technique in general: Resazurin is reduced to fluorescent resorufin, in cell work by metabolically active cells.
Series [5] concerns HEK293 cells. Description: Cellular uptake by flow cytometry in HEK293 cells. The series is classed as cell-based, human. The conditions noted are these: 1 and 10 µM CF-labeled peptide, 30 min, 37 °C, serum-free medium. The method, then:
as §1

In series [6] the test system is HEK-293 spheroids. Description: Flow cytometry of HEK-293 spheroids. The series is classed as cell-based, human. The conditions noted are these: 10 µM CF-labeled peptides, 30 min or 1 h. As for the experimental part: For the preparation and seeding of spheroids, cells were washed and trypsinized as described above. Cells were transferred into a fresh 15 mL centrifuge tube and centrifuged for 5 min at 300× g and rt. The supernatant was removed carefully and the pellet was resuspended in an appropriate medium supplemented with FBS. Cells were counted and a cell mixture was prepared, which would be sufficient for 100 drops (3 mL). Within this mixture a total amount of 1.5 × 10^6 cells (HEK-293 and HeLa cells) and 20% (v/v) methylcellulose (1.2 mg/mL) were required. The missing volume was filled up with an appropriate medium containing FBS; 30 μL drops were pipetted into the inverted lid of a petri dish (15,000 cells per drop), the bottom was covered with PBS and spheroids were grown in hanging drops for two or three days at 37 °C and 5% CO2, respectively.
For flow cytometry studies with tumor spheroids, the spheroids were prepared and grown as described above (4.7). […] After the spheroids started to fall apart, 850 μL of medium with FBS (indicator free) was added and the spheroids were resuspended to generate a homogenous cell suspension; 200 μL of each sample were transferred into a fresh round-bottom 96-well plate and analyzed on a Guava® easyCyte flow cytometer (Merck, Darmstadt, Germany). […]

In series [7] the test system is MCF-7 cells. Briefly: Cell viability (resazurin) assay in MCF-7 cells at pH 7.4 or 6.8. The conditions noted are these: MCF-7 cells cultivated at pH 7.4 or 6.8, 24 h, various concentrations, triplicate n = 3. The series is classed as cell-based, human. The method, then: For pH-dependent studies, the cells were cultivated and incubated at pH 6.8 or 7.4, respectively.
Figure 1 (A,B): Cell-viability assays using MCF-7 cells. Cells were cultivated at pH 7.4 or pH 6.8, respectively, for 24 h using different concentrations of peptide solutions. […] (C): Cellular uptake of histidine peptides in MCF-7 cells.

Setting [8] is: triplicate n = 3, listed as sC18^ΔE.

Residues, ends and D or L forms follow the SMILES beside them. No end group written: not given here. *: point of attachment. X1 = COc1cccc2c1C(=O)c1c(O)c3c(c(O)c1C2=O)C[C@@](O)(C(=O)CO)C[C@@H]3O[C@H]1C[C@H](NC(=O)CCN2C(=O)CC(*)C2=O)[C@H](O)[C@H](C)O1

On to `CC[C@H](C)[C@H](NC(=O)[C@H](CCCCN)NC(=O)[C@H](CC(N)=O)NC(=O)[C@H](CCCNC(=N)N)NC(=O)[C@H](Cc1ccccc1)NC(=O)[C@H](CCCCN)NC(=O)[C@H](CCCNC(=N)N)NC(=O)[C@H](CC(C)C)NC(=O)[C@H](CCCNC(=N)N)NC(=O)[C@H](CCCCN)NC(=O)[C@H](CCCNC(=N)N)NC(=O)[C@H](CC(C)C)NC(=O)CNC(=O)[C@@H](N)CSC1CC(=O)N(CCC(=O)N[C@H]2C[C@H](O[C@H]3C[C@](O)(C(=O)CO)Cc4c(O)c5c(c(O)c43)C(=O)c3c(OC)cccc3C5=O)O[C@@H](C)[C@H]2O)C1=O)C(=O)N[C@@H](CCCCN)C(=O)N[C@@H](CCCCN)C(N)=O` (stereo partly drawn) [PDC-2] (H-C(X1)GLRKRLRKFRNKIKK-NH2), for which the EC50 in series [1] (resazurin assay) worked out at 14.5 µM. In series [2] (5 µM PDC (text; legend of Figure 5C: 10 µM), doxorubicin red fluorescence), the “PDC internalization” value is recorded as “enhanced compared to the other two”. Besides, the “intracellular distribution of PDC” value in series [3] is “clustering inside the cytosol”.

In the case of `COc1cccc2c1C(=O)c1c(O)c3c(c(O)c1C2=O)C[C@@](O)(C(=O)CO)C[C@@H]3O[C@H]1C[C@H](N)[C@H](O)[C@H](C)O1.Cl` [Dox, doxorubicin hydrochloride, reference compound], the EC50 in series [1] (resazurin assay) is 6.78 µM. In series [4], the cell viability is listed as 72%.

For the compound `CC[C@H](C)[C@H](NC(=O)[C@H](CCCCN)NC(=O)[C@H](CC(N)=O)NC(=O)[C@H](CCCNC(=N)N)NC(=O)[C@H](Cc1ccccc1)NC(=O)[C@H](CCCCN)NC(=O)[C@H](CCCNC(=N)N)NC(=O)[C@H](CC(C)C)NC(=O)[C@H](CCCNC(=N)N)NC(=O)[C@H](CCCCN)NC(=O)[C@H](CCCNC(=N)N)NC(=O)[C@H](CC(C)C)NC(=O)CNC(=O)[C@@H](N)CSC1CC(=O)N(CCC(=O)N[C@H]2C[C@H](O[C@H]3C[C@](O)(C(=O)CO)Cc4c(O)c5c(c(O)c43)C(=O)c3c(OC)cccc3C5=O)O[C@@H](C)[C@H]2O)C1=O)C(=O)N[C@@H](CCCCN)C(=O)N[C@@H](CCC(=O)O)C(=O)N[C@@H](CCCCN)C(N)=O` (stereo partly drawn) [PDC-1] (H-C(X1)GLRKRLRKFRNKIKEK-NH2), the EC50 in series [1] (resazurin assay) was found to be 15.3 µM. The “intracellular distribution of PDC” value in series [3] was “more fluorescence was also measured within the nuclei”.

Turning to GLRKRLRKFRNKIKEK-NH2 [sC18], the “cellular uptake” value is “to a little extent” in series [5] (triplicate n = 3); “highly significant and enhanced internalization” in series [5] (setting [8]); “to a little extent” in series [2] (triplicate n = 3); “highly significant and enhanced internalization” in series [2] (setting [8]). The “cell viability at 100 µM” value in series [1] (concentration increased up to 100 µM, resazurin assay) was ≥ 75%. Further, in series [1] (pH 7.4, resazurin assay, n = 3 in triplicate), the “concentration up to which no toxic effect was observed” value worked out at 50 µM. In addition, the “intracellular accumulation / uptake pattern” value is “far lower compared to the other two novel peptides” in series [3]; “accumulated in a dot-like manner within the cell interior and did not reach the nuclei” in series [3] (listed as sC18^ΔE). In addition, the “accumulation in spheroids” value in series [6] is listed as “most efficient variants”. Moreover, the “cytotoxicity” value in series [7] was “slightly more toxic at higher concentrations”.

As to `COc1cccc2c1C(=O)c1c(O)c3c(c(O)c1C2=O)C[C@@](O)(C(=O)CO)C[C@@H]3O[C@H]1C[C@H](NC(=O)CCN2C(=O)CC(SC[C@H](N)C(=O)NCC(=O)N[C@@H](CC(C)C)C(=O)N[C@@H](CCCNC(=N)N)C(=O)N[C@@H](CCCCN)C(=O)N[C@@H](CCCNC(=N)N)C(=O)N[C@@H](CC(C)C)C(=O)N[C@@H](CCCNC(=N)N)C(=O)N[C@@H](CCCCN)C(=O)N[C@@H](Cc3ccccc3)C(=O)N[C@@H](CCCNC(=N)N)C(=O)N[C@@H](CC(N)=O)C(=O)N[C@@H](CCCCN)C(N)=O)C2=O)[C@H](O)[C@H](C)O1` (stereo partly drawn) [PDC-3] (H-C(X1)GLRKRLRKFRNK-NH2), the response in series [1] (resazurin assay) was half-maximal at 27 µM (EC50).

The term EC50 denotes the midpoint of the concentration-response curve. As usually defined, the cell viability is a read-out of living cells in per cent, often relative to untreated cells.
